Measured values reported in ChEMBL document CHEMBL1125711, “Flavins as potential antimalarials. 2. 3-Methyl-10-(substituted-phenyl) flavins” (J Med Chem, 1991).

Each compound was assayed on Mus musculus (assay: Increase in mean survival days was determined in mice after ip administration of 10 mg/kg). Settings: route intraperitoneal.
Assay type: functional

SMILES	Mean survival days
Cn1c(=O)nc2n(-c3cccc(C(F)(F)F)c3)c3ccccc3nc-2c1=O	1.4 days
Cn1c(=O)nc2n(-c3cc(Cl)ccc3Cl)c3ccccc3nc-2c1=O	0 days
Cn1c(=O)nc2n(-c3ccc(S(C)(=O)=O)cc3)c3ccccc3nc-2c1=O	0 days
COc1cc(OC)cc(-n2c3nc(=O)n(C)c(=O)c-3nc3ccccc32)c1	0 days
Cn1c(=O)nc2n(-c3cccc(F)c3)c3ccccc3nc-2c1=O	0.2 days
Cn1c(=O)nc2n(-c3cc(C(F)(F)F)cc(C(F)(F)F)c3)c3ccccc3nc-2c1=O	0 days
Cn1c(=O)nc2n(-c3ccc(Cl)cc3F)c3ccccc3nc-2c1=O	1 days
Cc1cc(-n2c3nc(=O)n(C)c(=O)c-3nc3ccccc32)ccc1Cl	0 days
Cn1c(=O)nc2n(-c3ccccc3Cl)c3ccccc3nc-2c1=O	0 days

The compounds below were run on Mus musculus (assay: Increase in mean survival days was determined in mice after ip administration of 15 mg/kg). Settings: route intraperitoneal.
Assay type: functional

SMILES	Mean survival days
Cn1c(=O)nc2n(-c3cccc(F)c3)c3ccccc3nc-2c1=O	0.2 days

These compounds were tested on Mus musculus (assay: Increase in mean survival days was determined in mice after ip administration of 20 mg/kg). Settings: route intraperitoneal.
Assay type: functional

SMILES	Mean survival days
Cn1c(=O)nc2n(-c3cccc(F)c3)c3ccccc3nc-2c1=O	0 days
Cn1c(=O)nc2n(-c3cc(C(F)(F)F)cc(C(F)(F)F)c3)c3ccccc3nc-2c1=O	0 days
Cn1c(=O)nc2n(-c3ccc(Cl)cc3F)c3ccccc3nc-2c1=O	4 days

Each compound was assayed on Mus musculus (assay: Increase in mean survival days was determined in mice after ip administration of 25 mg/kg). Settings: route intraperitoneal.
Assay type: functional

SMILES	Mean survival days
Cn1c(=O)nc2n(-c3cccc(F)c3)c3ccccc3nc-2c1=O	0 days

What follows are compounds tested on Mus musculus (assay: Increase in mean survival days was determined in mice after ip administration of 30 mg/kg). Settings: route intraperitoneal.
Assay type: functional

SMILES	Mean survival days
Cn1c(=O)nc2n(-c3cc(Cl)ccc3Cl)c3ccccc3nc-2c1=O	0 days
Cn1c(=O)nc2n(-c3ccc(S(C)(=O)=O)cc3)c3ccccc3nc-2c1=O	0.2 days
COc1cc(OC)cc(-n2c3nc(=O)n(C)c(=O)c-3nc3ccccc32)c1	0 days
Cn1c(=O)nc2n(-c3cccc(F)c3)c3ccccc3nc-2c1=O	0.2 days
Cn1c(=O)nc2n(-c3cc(C(F)(F)F)cc(C(F)(F)F)c3)c3ccccc3nc-2c1=O	0 days
Cc1cc(-n2c3nc(=O)n(C)c(=O)c-3nc3ccccc32)ccc1Cl	0 days

Each compound was assayed on Mus musculus (assay: Increase in mean survival days was determined in mice after ip administration of 30 mg/kg; toxic). Settings: route intraperitoneal.
Assay type: functional

SMILES	Mean survival days
Cn1c(=O)nc2n(-c3ccc(Cl)cc3F)c3ccccc3nc-2c1=O	-2 days
Cn1c(=O)nc2n(-c3ccccc3Cl)c3ccccc3nc-2c1=O	-0.3 days

What follows are compounds tested on Mus musculus (assay: Increase in mean survival days was determined in mice after ip administration of 40 mg/kg). Settings: route intraperitoneal.
Assay type: functional

SMILES	Mean survival days
Cn1c(=O)nc2n(-c3ccc(S(C)(=O)=O)cc3)c3ccccc3nc-2c1=O	-0.5 days
Cn1c(=O)nc2n(-c3cccc(F)c3)c3ccccc3nc-2c1=O	0.8 days
Cc1cc(-n2c3nc(=O)n(C)c(=O)c-3nc3ccccc32)ccc1Cl	0.3 days

These compounds were tested on Mus musculus (assay: Increase in mean survival days was determined in mice after ip administration of 50 mg/kg). Settings: route intraperitoneal.
Assay type: functional

SMILES	Mean survival days
COc1cc(OC)cc(-n2c3nc(=O)n(C)c(=O)c-3nc3ccccc32)c1	0 days
Cn1c(=O)nc2n(-c3cccc(F)c3)c3ccccc3nc-2c1=O	0 days
Cn1c(=O)nc2n(-c3cc(C(F)(F)F)cc(C(F)(F)F)c3)c3ccccc3nc-2c1=O	0 days
Cc1cc(-n2c3nc(=O)n(C)c(=O)c-3nc3ccccc32)ccc1Cl	0.3 days

Each compound was assayed on Mus musculus (assay: Increase in mean survival days was determined in mice after ip administration of 50 mg/kg; toxic). Settings: route intraperitoneal.
Assay type: functional

SMILES	Mean survival days
Cn1c(=O)nc2n(-c3ccc(S(C)(=O)=O)cc3)c3ccccc3nc-2c1=O	-0.8 days

These compounds were tested on Mus musculus (assay: Increase in mean survival days was determined in mice after ip administration of 60 mg/kg). Settings: route intraperitoneal.
Assay type: functional

SMILES	Mean survival days
Cn1c(=O)nc2n(-c3cccc(C(F)(F)F)c3)c3ccccc3nc-2c1=O	10 days
COc1cc(OC)cc(-n2c3nc(=O)n(C)c(=O)c-3nc3ccccc32)c1	3 days

The compounds below were run on Plasmodium vinckei vinckei (assay: Increase in mean survival days of Plasmodium inoculated mice (Mus musculus) after 70 mg/Kg intraperitoneal dose). Settings: not given.
Assay type: functional

SMILES	Mean survival days
Cn1c(=O)nc2n(-c3cc(C(F)(F)F)cc(C(F)(F)F)c3)c3ccccc3nc-2c1=O	0 days
Cc1cc(-n2c3nc(=O)n(C)c(=O)c-3nc3ccccc32)ccc1Cl	2 days

Each compound was assayed on Mus musculus (assay: (§1) Increase in mean survival days was determined in mice after ip administration of 70 mg/kg; toxic). Settings: route intraperitoneal.
Assay type: functional

SMILES	Mean survival days
Cn1c(=O)nc2n(-c3cccc(C(F)(F)F)c3)c3ccccc3nc-2c1=O	7.5 days
Cn1c(=O)nc2n(-c3ccc(S(C)(=O)=O)cc3)c3ccccc3nc-2c1=O	-2 days
Cn1c(=O)nc2n(-c3cccc(F)c3)c3ccccc3nc-2c1=O	-1 days
Cn1c(=O)nc2n(-c3ccccc3Cl)c3ccccc3nc-2c1=O	-2 days

Each compound was assayed on Mus musculus (assay: as §1). Settings: in vivo.
Assay type: ADME, organism-based
Design: dose 70 mg/kg, route intraperitoneal

SMILES	Mean survival days
Cn1c(=O)nc2n(-c3cc(Cl)ccc3Cl)c3ccccc3nc-2c1=O	-0.6 days

Species on record: Mus musculus
Assay: Effective dose required to obtain a parasitaemia of 40% 48 hours after treatment in mice
Assay type: functional
Settings: not given

SMILES	ED40
Cn1c(=O)nc2n(-c3cccc(C(F)(F)F)c3)c3ccccc3nc-2c1=O	79.3 µmol/kg
COc1cc(OC)cc(-n2c3nc(=O)n(C)c(=O)c-3nc3ccccc32)c1	219 µmol/kg
Cc1cc(-n2c3nc(=O)n(C)c(=O)c-3nc3ccccc32)ccc1Cl	182 µmol/kg

These compounds were tested on Mus musculus (assay: Antimalarial activity was evaluated against Plasmodium vinckei V52 after intraperitoneal administration at dose 30 mg/kg). Settings: not given.
Assay type: functional

SMILES	Cured
Cn1c(=O)nc2n(-c3cc(C(F)(F)F)cc(C(F)(F)F)c3)c3ccccc3nc-2c1=O	0%

What follows are compounds tested on Mus musculus (assay: Antimalarial activity was evaluated against Plasmodium vinckei vinckeii V52 after intraperitoneal administration at dose 50 mg/kg). Settings: not given.
Assay type: functional

SMILES	Cured
Cn1c(=O)nc2n(-c3cc(C(F)(F)F)cc(C(F)(F)F)c3)c3ccccc3nc-2c1=O	0%

The compounds below were run on Plasmodium vinckei vinckei (assay: Antimalarial activity against Plasmodium vinckei V52 on 10 mg/kg intraperitoneal dose). Settings: not given.
Assay type: functional

SMILES	Cured
Cn1c(=O)nc2n(-c3cccc(C(F)(F)F)c3)c3ccccc3nc-2c1=O	33%
Cn1c(=O)nc2n(-c3cc(Cl)ccc3Cl)c3ccccc3nc-2c1=O	0%
Cn1c(=O)nc2n(-c3ccc(S(C)(=O)=O)cc3)c3ccccc3nc-2c1=O	0%
COc1cc(OC)cc(-n2c3nc(=O)n(C)c(=O)c-3nc3ccccc32)c1	0%
Cn1c(=O)nc2n(-c3cccc(F)c3)c3ccccc3nc-2c1=O	0%
Cn1c(=O)nc2n(-c3ccc(Cl)cc3F)c3ccccc3nc-2c1=O	0%
Cc1cc(-n2c3nc(=O)n(C)c(=O)c-3nc3ccccc32)ccc1Cl	0%
Cn1c(=O)nc2n(-c3ccccc3Cl)c3ccccc3nc-2c1=O	0%

What follows are compounds tested on Mus musculus (assay: Antimalarial activity was evaluated against Plasmodium vinckei V52 after intraperitoneal administration at dose 15 mg/kg). Settings: not given.
Assay type: functional

SMILES	Cured
Cn1c(=O)nc2n(-c3cccc(C(F)(F)F)c3)c3ccccc3nc-2c1=O	100%
Cn1c(=O)nc2n(-c3cccc(F)c3)c3ccccc3nc-2c1=O	0%

The compounds below were run on Mus musculus (assay: Antimalarial activity was evaluated against Plasmodium vinckei V52 after intraperitoneal administration at dose 20 mg/kg). Settings: not given.
Assay type: functional

SMILES	Cured
Cn1c(=O)nc2n(-c3cc(C(F)(F)F)cc(C(F)(F)F)c3)c3ccccc3nc-2c1=O	0%

These compounds were tested on Mus musculus (assay: Antimalarial activity was evaluated against Plasmodium vinckei vinckei V52 after intraperitoneal administration at dose 25 mg/kg). Settings: not given.
Assay type: functional

SMILES	Cured
Cn1c(=O)nc2n(-c3cccc(C(F)(F)F)c3)c3ccccc3nc-2c1=O	100%

The compounds below were run on Mus musculus (assay: Antimalarial activity was evaluated against Plasmodium vinckei V52 after intraperitoneal administration at dose 25 mg/kg). Settings: not given.
Assay type: functional

SMILES	Cured
Cn1c(=O)nc2n(-c3cccc(F)c3)c3ccccc3nc-2c1=O	0%

The compounds below were run on Plasmodium vinckei vinckei (assay: Antimalarial activity against Plasmodium vinckei V52 on 30 mg/kg intraperitoneal dose). Settings: not given.
Assay type: functional

SMILES	Cured
Cn1c(=O)nc2n(-c3cccc(C(F)(F)F)c3)c3ccccc3nc-2c1=O	100%
Cn1c(=O)nc2n(-c3cc(Cl)ccc3Cl)c3ccccc3nc-2c1=O	0%
Cn1c(=O)nc2n(-c3ccc(S(C)(=O)=O)cc3)c3ccccc3nc-2c1=O	0%
Cn1c(=O)nc2n(-c3cccc(F)c3)c3ccccc3nc-2c1=O	0%
Cn1c(=O)nc2n(-c3ccc(Cl)cc3F)c3ccccc3nc-2c1=O	0%
Cn1c(=O)nc2n(-c3ccccc3Cl)c3ccccc3nc-2c1=O	0%

The compounds below were run on Mus musculus (assay: Antimalarial activity was evaluated against Plasmodium vinckei vinckei V52 after intraperitoneal administration at dose 40 mg/kg). Settings: not given.
Assay type: functional

SMILES	Cured
Cn1c(=O)nc2n(-c3cccc(C(F)(F)F)c3)c3ccccc3nc-2c1=O	100%
Cn1c(=O)nc2n(-c3cccc(F)c3)c3ccccc3nc-2c1=O	0%

Each compound was assayed on Mus musculus (assay: Antimalarial activity was evaluated against Plasmodium vinckei V52 after intraperitoneal administration at dose 40 mg/kg). Settings: not given.
Assay type: functional

SMILES	Cured
Cn1c(=O)nc2n(-c3ccc(S(C)(=O)=O)cc3)c3ccccc3nc-2c1=O	0%
Cc1cc(-n2c3nc(=O)n(C)c(=O)c-3nc3ccccc32)ccc1Cl	0%

Each compound was assayed on Mus musculus (assay: Antimalarial activity was evaluated against Plasmodium vinckei vinckei V52 after intraperitoneal administration at dose 50 mg/kg). Settings: not given.
Assay type: functional

SMILES	Cured
Cn1c(=O)nc2n(-c3cccc(C(F)(F)F)c3)c3ccccc3nc-2c1=O	100%
COc1cc(OC)cc(-n2c3nc(=O)n(C)c(=O)c-3nc3ccccc32)c1	0%

Each compound was assayed on Mus musculus (assay: Antimalarial activity was evaluated against Plasmodium vinckei V52 after intraperitoneal administration at dose 50 mg/kg). Settings: not given.
Assay type: functional

SMILES	Cured
Cn1c(=O)nc2n(-c3ccc(S(C)(=O)=O)cc3)c3ccccc3nc-2c1=O	0%
Cn1c(=O)nc2n(-c3cccc(F)c3)c3ccccc3nc-2c1=O	20%
Cc1cc(-n2c3nc(=O)n(C)c(=O)c-3nc3ccccc32)ccc1Cl	25%

What follows are compounds tested on Mus musculus (assay: Antimalarial activity was evaluated against Plasmodium vinckei vinckei V52 after intraperitoneal administration at dose 60 mg/kg). Settings: not given.
Assay type: functional

SMILES	Cured
Cn1c(=O)nc2n(-c3cccc(C(F)(F)F)c3)c3ccccc3nc-2c1=O	40%
COc1cc(OC)cc(-n2c3nc(=O)n(C)c(=O)c-3nc3ccccc32)c1	20%

The compounds below were run on Mus musculus (assay: Antimalarial activity was evaluated against Plasmodium vinckei V52 after intraperitoneal administration at dose 60 mg/kg). Settings: not given.
Assay type: functional

SMILES	Cured
Cc1cc(-n2c3nc(=O)n(C)c(=O)c-3nc3ccccc32)ccc1Cl	100%

These compounds were tested on Mus musculus (assay: Antimalarial activity was evaluated against Plasmodium vinckei V52 after intraperitoneal administration at dose 70 mg/kg). Settings: not given.
Assay type: functional

SMILES	Cured
Cn1c(=O)nc2n(-c3cccc(C(F)(F)F)c3)c3ccccc3nc-2c1=O	0%
Cn1c(=O)nc2n(-c3cc(Cl)ccc3Cl)c3ccccc3nc-2c1=O	0%
Cn1c(=O)nc2n(-c3cc(C(F)(F)F)cc(C(F)(F)F)c3)c3ccccc3nc-2c1=O	0%

The compounds below were run on Plasmodium vinckei vinckei (assay: Antimalarial activity against Plasmodium vinckei V52 on 70 mg/kg intraperitoneal dose). Settings: not given.
Assay type: functional

SMILES	Cured
Cn1c(=O)nc2n(-c3ccc(S(C)(=O)=O)cc3)c3ccccc3nc-2c1=O	0%
COc1cc(OC)cc(-n2c3nc(=O)n(C)c(=O)c-3nc3ccccc32)c1	100%
Cn1c(=O)nc2n(-c3cccc(F)c3)c3ccccc3nc-2c1=O	0%
Cc1cc(-n2c3nc(=O)n(C)c(=O)c-3nc3ccccc32)ccc1Cl	80%
Cn1c(=O)nc2n(-c3ccccc3Cl)c3ccccc3nc-2c1=O	0%

Each compound was assayed on Mus musculus (assay: Antimalarial activity was evaluated against Plasmodium vinckei V52 after intraperitoneal administration at dose 10 mg/kg). Settings: not given.
Assay type: functional

SMILES	Cured
Cn1c(=O)nc2n(-c3cc(C(F)(F)F)cc(C(F)(F)F)c3)c3ccccc3nc-2c1=O	0%

These compounds were tested on Plasmodium vinckei vinckei (assay: Antimalarial activity against Plasmodium vinckei V52 after 20 mg/kg intraperitoneal dose). Settings: not given.
Assay type: functional

SMILES	Cured
Cn1c(=O)nc2n(-c3cccc(C(F)(F)F)c3)c3ccccc3nc-2c1=O	100%
COc1cc(OC)cc(-n2c3nc(=O)n(C)c(=O)c-3nc3ccccc32)c1	0%
Cn1c(=O)nc2n(-c3cccc(F)c3)c3ccccc3nc-2c1=O	0%
Cn1c(=O)nc2n(-c3ccc(Cl)cc3F)c3ccccc3nc-2c1=O	0%
Cc1cc(-n2c3nc(=O)n(C)c(=O)c-3nc3ccccc32)ccc1Cl	0%
